Reference: patent publication US20250122171A1, “Substituted Amine Compounds, Compositions and Methods of Use” (Deep Apple Therapeutics, Inc., priority 2023, published 2025)

Tests used:
LAD-2 cells = experiment: LAD2 Degranulation Assay (Protocol 2), β-hexosaminidase release; format: cell-based; settings: Homo sapiens; for IC50: 0.5 μM Cortistatin-14, 2 h preincubation, cells without SCF 18-24 hours, top concentration 3 μM; for activity at 0.25 µM: single point 250 nM, 0.5 μM Cortistatin-14, % control β-hexosaminidase activity
Method: LAD-2 cells were maintained at 37° C. with 5% CO2 and grown in complete StemPro-34 media supplemented with 1% L-Glutamate, 1% penicillin/streptomycin, and 250 ng/mL human SCF.
18-24 hours prior to experiment, LAD-2 cells were collected and transferred to growth media without SCF. On the day of experiment, cells were collected by centrifugation and seeded in 384-well assay plates, at 4,000 cells per well in 17 μl freshly made assay buffer (10 mM HEPES, 137 mM NaCl, 2.7 mM KCl, 1.8 mM CaCl2), 1.0 mM MgCl2, 5.6 mM glucose, 0.4 mM NaH2PO4, 0.04% BSA, pH=7.40). For dose-response assays, compounds solubilized in 100% DMSO at 30 mM were serially diluted (1:3) first in 100% DMSO, and 2 intermediate dilutions with assay buffer were used to establish a final top concentration of 3 μM (in assay plate). For single point assays, dilution of DMSO stocks to 250 nM (in assay plate) was performed in the same manner as described for dose-response assays. Final DMSO concentration was kept constant at 0.1% across plates for all assays. Cortistatin-14 at 30 mM stock concentration was solubilized in HBSS+0.1% BSA, stored at −20° C. in 5 μl aliquots and discarded after one freeze-thaw cycle. Final concentration of agonist used in both dose-response and single point assays was 0.5 μM, prepared in assay buffer.
Antagonist equilibrium was established with 2 h preincubation, followed by no wash, direct addition, and stimulation of agonist for 30 minutes at 37° C. For detection of β-hexosaminidase activity, assay plates were centrifuged and 5 μl of cell-free supernatant from each assay well was transferred to a black-walled black-bottomed 384-well plate. Substrate solution (1 mM 4-Methylumbelliferyl N-acetyl-β-D-glucosaminide in citrate buffer, pH=4.5, […]) was added to each well and plates were incubated for 1 hour at 37° C. The plate was read on an EnVision XCite plate reader for umbelliferone fluorescence intensity (λex=355 nm, λem=460 nm). Background-subtracted data was analyzed using either GraphPad Prism or a custom Python script to calculate IC50 using either Log[Antagonist] vs. response (4 parameter) nonlinear regression (dose-response assays) or % control β-hexosaminidase activity (single point assays).

human MRGPRX2 = target: T1, human MRGPRX2 (Homo sapiens, UniProt Q96LB1); experiment: MRGPRX2 Activity Assay (IP-1 HTRF, antagonist mode); format: cell-based; settings: FlpIn TRex-MRGPRX2-HEK293 cells; versus 1 μM Cortistatin-14 agonist; 30 minutes preincubation
T1 construct: expressed in transfected cells; host or cells: FlpIn TRex HEK293 (TRex-MRGPRX2-HEK), doxycycline-induced
T1 sequence (Q96LB1 1-330): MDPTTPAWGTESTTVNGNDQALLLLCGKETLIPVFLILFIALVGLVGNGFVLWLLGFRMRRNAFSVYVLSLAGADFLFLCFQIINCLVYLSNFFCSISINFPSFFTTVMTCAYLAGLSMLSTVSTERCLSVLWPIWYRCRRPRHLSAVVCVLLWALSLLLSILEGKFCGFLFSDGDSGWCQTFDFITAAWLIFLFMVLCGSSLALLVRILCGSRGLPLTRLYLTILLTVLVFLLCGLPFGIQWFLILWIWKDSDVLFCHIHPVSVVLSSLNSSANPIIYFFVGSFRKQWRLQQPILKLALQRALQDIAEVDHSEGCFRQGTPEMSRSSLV
Summary of the method: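 Doxycycline-induced (100 ng/mL, 18-24 h) TRex HEK293 cells stably expressing human MRGPRX2, in HBSS/20 mM HEPES/0.1% BSA/10 mM LiCl. Compounds (top final 30 uM, 1% DMSO) preincubated 30 min, then agonist stimulation 1 h at 37° C without wash. IP-1 accumulation read by HTRF; IC50 from 4-parameter fit.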

| SMILES | IC50 (LAD-2 cells) [nM] | IC50 (human MRGPRX2) [nM] | activity at 0.25 µM (LAD-2 cells) [%] |
| --- | --- | --- | --- |
| C[C@@H](C(=O)Nc1cc2n(n1)CC[C@H]2c1cc(F)cc(F)c1)N1CCC(F)(F)[C@@H](c2ccc(=O)[nH]c2)C1 (single isomer, unassigned) [Compound 531] | 614 | 592 | – |
| C[C@@H](C(=O)Nc1cn2c(n1)CC[C@@H]2c1cc(F)cc(F)c1)N1CCC(F)(F)[C@@H](c2c[nH]c(=O)c(CN3CCC(F)(F)CC3)c2)C1 (single isomer, unassigned) [Compound 542] | – | – | 126 |
| C[C@@H](C(=O)Nc1cn2c(n1)CC[C@@H]2c1cc(F)cc(F)c1)N1CCC(F)(F)[C@H](c2c[nH]c(=O)c([C@@H](N)C(F)F)c2)C1 (single isomer, unassigned) [Compound 539] | – | – | 12 |
| C[C@@H](C(=O)Nc1cn2c(n1)CCC[C@@H]2c1cc(F)cc(F)c1)N1CCC(F)(F)[C@@H](c2ccc(=O)[nH]c2)C1 (single isomer, unassigned) [Compound 507] | – | – | 130 |
| C[C@@H](C(=O)Nc1cn(Cc2cc(F)cc(F)c2)c(C(F)F)n1)N1CCC(F)(F)[C@@H](c2c[nH]c(=O)c(CO)c2)C1 (single isomer, unassigned) [Compound 490] | 34 | 3.5 | – |
| C[C@@H](C(=O)Nc1cn2c(n1)CC[C@@H]2c1ccc(F)cc1F)N1CCC(F)(F)[C@@H](c2ccc(=O)[nH]c2)C1 (single isomer, unassigned) [Compound 505] | > 3000 | – | 106 |
| C[C@@H](C(=O)Nc1cn2c(n1)CC[C@@H]2c1cc(F)cc(F)c1)N1CCC(F)(F)[C@H](c2c[nH]c(=O)c([C@H](N)C(F)F)c2)C1 (single isomer, unassigned) [Compound 537] | – | – | 10 |
| C[C@H](C(=O)Nc1cn2c(n1)CC[C@H]2c1cc(F)cc(F)c1)N1CCCCC1 (single isomer, unassigned) [Compound 499] | > 3000 | > 30000 | – |
| C[C@@H](C(=O)Nc1cn2c(n1)CC[C@H]2c1cc(F)ccc1F)N1CCC(F)(F)[C@@H](c2ccc(=O)[nH]c2)C1 (single isomer, unassigned) [Compound 504] | 31 | – | 13 |
| C[C@@H](C(=O)Nc1cn2c(n1)CC[C@@H]2c1cc(F)cc(F)c1)N1CCC(F)(F)C(c2cc[n+]([O-])c(C(O)CO)c2)C1 (stereo partly drawn) [Compound 545, 4-(1-((S)-1-(((R)-5-(3,5-difluorophenyl)-6,7-dihydro-5H-pyrrolo[1,2-a]imidazol-2-yl)amino)-1-oxopropan-2-yl)-4,4-difluoropiperidin-3-yl)-2-(1,2-dihydroxyethyl)pyridine 1-oxide] | – | – | 16 |
| C[C@@H](C(=O)Nc1cn2c(n1)CC[C@@H]2c1cc(F)cc(F)c1)N1CCC(F)(F)[C@H](c2c[nH]c(=O)c(C(N)C(F)(F)F)c2)C1 (single isomer, unassigned) [Compound 541] | – | – | 11 |
| C[C@@H](C(=O)Nc1cn2c(n1)CCC[C@H]2c1cc(F)cc(F)c1)N1CCC(F)(F)[C@@H](c2ccc(=O)[nH]c2)C1 (single isomer, unassigned) [Compound 508] | – | – | 110 |
| C[C@@H](C(=O)Nc1cn2c(n1)CC[C@@H]2c1cc(F)cc(F)c1)N1CCC(F)(F)[C@@H](c2c[nH]c(=O)c(C(N)C(F)(F)F)c2)C1 (single isomer, unassigned) [Compound 540] | – | – | 124 |
| C[C@@H](C(=O)Nc1cn2c(n1)CC[C@@H]2c1cc(F)cc(F)c1)N1CCC(F)(F)[C@@H](c2ccc(=O)[nH]c2)C1 (single isomer, unassigned) [Compound 493] | > 3000 | > 30000 | – |
| C[C@@H](C(=O)Nc1cn2c(n1)CC[C@@H]2c1cc(F)cc(F)c1)N1CCC(F)(F)[C@@H](c2c[nH]c(=O)c([C@@H](N)C(F)F)c2)C1 (single isomer, unassigned) [Compound 538] | – | – | 81 |
| C[C@@H](C(=O)Nc1cn2c(n1)CC[C@@H]2c1cc(F)cc(F)c1)N1CCC(F)(F)[C@H](c2c[nH]c(=O)c(CN3CCC(F)(F)CC3)c2)C1 (single isomer, unassigned) [Compound 543] | – | – | 59 |
| C[C@@H](C(=O)Nc1cn2c(n1)CC[C@@H]2c1cc(F)cc(F)c1)N1CCC(F)(F)C(c2c[nH]c(=O)c(CO)n2)C1 (stereo partly drawn) [Compound 544, (2S)-2-(4,4-difluoro-3-(6-(hydroxymethyl)-5-oxo-4,5-dihydropyrazin-2-yl)piperidin-1-yl)-N—((R)-5-(3,5-difluorophenyl)-6,7-dihydro-5H-pyrrolo[1,2-a]imidazol-2-yl)propanamide] | – | – | 81 |
| C[C@H](C(=O)Nc1cn2c(n1)CC[C@@H]2c1cc(F)cc(F)c1)N1CCCCC1 (single isomer, unassigned) [Compound 498] | 79 | 686 | – |
| C[C@@H](C(=O)Nc1cn2c(n1)CC[C@H]2c1cc(F)cc(F)c1)N1CCC(F)(F)CC1 (single isomer, unassigned) [Compound 510] | – | – | 87 |
| C[C@@H](C(=O)Nc1cn2c(n1)CC[C@@H]2c1cc(F)cc(F)c1)N1CCC(F)(F)[C@@H](c2c[nH]c(=O)c([C@H](N)C(F)F)c2)C1 (single isomer, unassigned) [Compound 536] | – | – | 89 |
| C[C@@H](C(=O)Nc1cn2c(n1)CC[C@H]2c1ccc(F)cc1F)N1CCC(F)(F)[C@@H](c2ccc(=O)[nH]c2)C1 (single isomer, unassigned) [Compound 506] | 30 | – | – |
| C[C@@H](C(=O)Nc1cn2c(n1)CC[C@@H]2c1cc(F)ccc1F)N1CCC(F)(F)[C@@H](c2ccc(=O)[nH]c2)C1 (single isomer, unassigned) [Compound 503] | – | – | 105 |
| C[C@@H](C(=O)Nc1nc2n(n1)[C@@H](c1cc(F)cc(F)c1)CC2)N1CCC(F)(F)[C@@H](c2ccc(=O)[nH]c2)C1 (single isomer, unassigned) [Compound 501] | – | – | 101 |
| C[C@@H](C(=O)Nc1cn2c(n1)CC[C@@H]2c1cc(F)cc(F)c1)N1CCC(F)(F)CC1 (single isomer, unassigned) [Compound 509] | – | – | 11 |
| C[C@@H](C(=O)Nc1nc2n(n1)[C@H](c1cc(F)cc(F)c1)CC2)N1CCC(F)(F)[C@@H](c2ccc(=O)[nH]c2)C1 (single isomer, unassigned) [Compound 502] | – | – | 44 |
| C[C@@H](C(=O)Nc1cn2c(n1)CC[C@@H]2c1cc(F)cc(F)c1)N1CCC(F)(F)C(c2c[nH]c(=O)c(C(O)CO)c2)C1 (stereo partly drawn) [Compound 546, (2S)—N—((R)-5-(3,5-difluorophenyl)-6,7-dihydro-5H-pyrrolo[1,2-a]imidazol-2-yl)-2-(3-(5-(1,2-dihydroxyethyl)-6-oxo-1,6-dihydropyridin-3-yl)-4,4-difluoropiperidin-1-yl)propanamide] | – | – | 34 |
| C[C@@H](C(=O)Nc1cc2n(n1)CC[C@@H]2c1cc(F)cc(F)c1)N1CCC(F)(F)[C@@H](c2ccc(=O)[nH]c2)C1 (single isomer, unassigned) [Compound 530] | 0.81 | – | – |
| C[C@@H](C(=O)Nc1cn2c(n1)CC[C@H]2c1cc(F)cc(F)c1)N1CCCCC1 (single isomer, unassigned) [Compound 500] | > 3000 | > 30000 | – |
